Laboratory results published in patent publication US20110311455A1, “EN[…] GUIDED IMAGING AND […]” (THE REGENTS OF THE UNIVERSITY OF CALIFORNIA, priority 2008, published 2011).

Test system: normal human bronchial epithelial cells (LHS-9)
Experiment: Cellular fluorescence imaging of cells incubated with OVG's or free ICG
Format: cell-based
Conditions: 2 hr post-incubation; ICG 10 μg/ml
Experimental: The cells were cultured for 24 hours in serum free culture medium supplied by the commercial vendor. […] An optical filter that allowed transmission of NIR light greater than 780 nm was used to capture the fluorescent signal onto a CCD camera.

For `CC1(C)C(/C=C/C=C/C=C/C=C2\N(CCCCS(=O)(=O)O)c3ccc4ccccc4c3C2(C)C)=[N+](CCCCS(=O)(=O)[O-])c2ccc3ccccc3c21` [ICG, indocyanine green], which “localization in cells (confocal fluorescent images)” value is on record?
Its value is “remains mostly localized to the “rim” of the cells”.
